Assay results as given in patent US20220354818A1, “METHODS FOR TREATING BRAIN INJURY OR COGNITIVE DYSFUNCTION BY PHARMACOLOGICAL ENHANCMENT OF M-TYPE POTASSIUM ION CURRENTS IN NEURONS” (Advanced Neuroresearch Therapeutics LLC, priority 2019, published 2022).

System: mice subjected to one blunt TBI, pentylenetetrazol (PTZ)
Assay: PTZ-induced seizure susceptibility after one blunt TBI (CCCI)
Assay type: in vivo, mouse
Settings: RTG at 1 mg/kg; PTZ 35 mg/kg s.c. fifth day post-TBI
Excerpt: Stimulation with PTZ induced the occurrence of clonic and tonic-clonic seizures in TBI-subjected mice.

Question: Which “occurrence of PTZ-induced seizures” value does the source give for `CCOC(=O)Nc1ccc(NCc2ccc(F)cc2)cc1N` [RTG, 2-amino-4-(4-fluorobenzylamino)-1-ethoxycarbonylaminobenzene] here?
Answer: Its value is “completely blocked the occurrence of PTZ-induced seizures”.
